Literature values, collected in patent US20100056493A1, “MODIFIED RELEASE PHARMACEUTICAL COMPOSITION AND A PROCESS OF MAKING THE SAME” (priority 2007, published 2010).

How the values were obtained:
[1] = tested on: de novo kidney allograft recipients; details: P=NS
[2] = given in brackets after the drug name; no method stated
[3] = 720 mg mycophenolic acid as mycophenolate sodium twice daily or 1000 mg MMF twice daily

Compound | frequency of dosage reductions, discontinuation, or temporary interruptions of therapy secondary to GI toxicities [1, 3] [%] | incidence of GI adverse events [1, 3] [%] | pH [2] | overall incidence of efficacy failure (biopsy-proven acute rejection, graft loss, death, or loss to follow-up) ([1]; at 6 months, 720 mg mycophenolic acid as mycophenolate sodium twice daily (n=213) or 1000 mg MMF twice daily (n=210)) [%] | BPAR rates ([1]; at 12 months, 720 mg mycophenolic acid as mycophenolate sodium twice daily or 1000 mg MMF twice daily) [%]
COc1c(C)c2c(c(O)c1C/C=C(\C)CCC(=O)O)C(=O)OC2 [mycophenolate sodium] | 13.1 | 78.4 | – | – | –
O=C(O)/C=C/C(=O)O.OCCOCCN1CCN(C2=Nc3ccccc3Sc3ccccc32)CC1 [Quetiapine fumarate, 2-[2-(4-dibenzo[b,f][1,4]thiazepin-11-yl-1-piperazinyl)ethoxy]-ethanol fumarate] | – | – | 5.4 | – | –
COc1c(C)c2c(c(O)c1C/C=C(\C)CCC(=O)OCCN1CCOCC1)C(=O)OC2 [MMF, mycophenolate mofetil] | 17.6 | 78.1 | 7.2 | 28.1 | 24.3
